Measurements taken from the NIST ThermoML archive (doi:10.1021/je5010214).

Conditions: Liquid, Vibrating tube method

CCCCCCC [heptane]
Conditions	mass density [kg/m3]
283.15 K, 101 kPa	692.398
283.15 K, 267.6 kPa	692.646
283.15 K, 550.8 kPa	692.799
283.15 K, 878.6 kPa	693.177
283.15 K, 991.3 kPa	693.192
283.15 K, 2020.2 kPa	694.161
283.15 K, 2914.8 kPa	694.997
283.15 K, 4946.5 kPa	696.597
283.15 K, 7034.8 kPa	698.638
283.15 K, 9021.6 kPa	700.052
283.15 K, 9991.9 kPa	700.869
283.15 K, 11959 kPa	702.48
283.15 K, 15011 kPa	704.783
283.15 K, 18047 kPa	706.965
283.15 K, 20045 kPa	708.637
283.15 K, 22056 kPa	709.841
283.15 K, 25044 kPa	712
283.15 K, 28046 kPa	714.05
283.15 K, 30052 kPa	715.435
283.15 K, 32055 kPa	716.688
283.15 K, 32971 kPa	717.342
283.15 K, 33000 kPa	717.432
283.15 K, 34016 kPa	718.012
283.15 K, 34960 kPa	718.734
283.15 K, 37943 kPa	720.455
283.15 K, 40004 kPa	721.755
283.15 K, 42058 kPa	723.102
283.15 K, 44940 kPa	724.839
283.15 K, 48022 kPa	726.526
283.15 K, 49996 kPa	727.851
283.15 K, 51982 kPa	728.904
283.15 K, 54965 kPa	730.736
283.15 K, 57949 kPa	732.407
283.15 K, 59996 kPa	733.467
283.15 K, 62025 kPa	734.345
283.15 K, 64998 kPa	735.98
283.16 K, 65971 kPa	736.499
288.15 K, 102 kPa	688.224
288.15 K, 391.3 kPa	688.682
288.15 K, 554.4 kPa	688.232
288.15 K, 882.7 kPa	689.214
288.15 K, 989.1 kPa	688.618
288.15 K, 2057.5 kPa	689.559
288.15 K, 2917.8 kPa	690.931
288.15 K, 5041.4 kPa	692.738
288.15 K, 7088.8 kPa	693.96
288.15 K, 9018.6 kPa	695.614
288.15 K, 10040 kPa	696.278
288.15 K, 12072 kPa	698.584
288.15 K, 15001 kPa	700.836
288.15 K, 17968 kPa	703.23
288.15 K, 20068 kPa	704.758
288.15 K, 22020 kPa	705.649
288.15 K, 25002 kPa	707.645
288.15 K, 28026 kPa	709.735
288.15 K, 30035 kPa	711.006
288.15 K, 32084 kPa	712.959
288.15 K, 33050 kPa	713.818
288.15 K, 33096 kPa	713.93
288.15 K, 34036 kPa	714.067
288.15 K, 35077 kPa	714.575
288.15 K, 37993 kPa	716.378
288.15 K, 40041 kPa	717.608
288.15 K, 42023 kPa	718.735
288.15 K, 44979 kPa	720.398
288.15 K, 48045 kPa	723.18
288.15 K, 50068 kPa	724.245
288.15 K, 52032 kPa	724.841
288.15 K, 55077 kPa	726.211
288.15 K, 58004 kPa	729.214
288.15 K, 59988 kPa	729.723
288.15 K, 61974 kPa	731.101
288.15 K, 64942 kPa	731.745
288.15 K, 66025 kPa	732.751
293.15 K, 100.5 kPa	683.714
293.15 K, 825.1 kPa	684.796
293.15 K, 1971.7 kPa	685.978
293.15 K, 3060.6 kPa	686.787
293.15 K, 5011 kPa	688.859
293.15 K, 9042.1 kPa	692.394
293.15 K, 10036 kPa	693.252
293.15 K, 11946 kPa	694.459
293.15 K, 14941 kPa	697.266
293.15 K, 21987 kPa	701.769
293.15 K, 27986 kPa	706.659
293.15 K, 33150 kPa	710.401
293.15 K, 33151 kPa	710.425
293.15 K, 34099 kPa	710.557
293.15 K, 35000 kPa	711.53
293.15 K, 40081 kPa	714.898
293.15 K, 42099 kPa	716.347
293.15 K, 45068 kPa	718.234
293.15 K, 54966 kPa	724.479
293.15 K, 58072 kPa	726.215
293.15 K, 66045 kPa	730.5
293.16 K, 305.2 kPa	684.504
293.16 K, 476.4 kPa	684.708
293.16 K, 1045.2 kPa	685.167
293.16 K, 7096.8 kPa	690.796
293.16 K, 17889 kPa	698.789
293.16 K, 19992 kPa	701.345
293.16 K, 24983 kPa	704.2
293.16 K, 29976 kPa	708.599
293.16 K, 32232 kPa	710.098
293.16 K, 38026 kPa	712.948
293.16 K, 48022 kPa	720.258
293.16 K, 50084 kPa	721.322
293.16 K, 52032 kPa	722.789
293.16 K, 60018 kPa	727.31
293.16 K, 61962 kPa	728.261
293.16 K, 64991 kPa	729.973
298.15 K, 102.3 kPa	679.807
298.15 K, 305.4 kPa	680.336
298.15 K, 854.5 kPa	680.896
298.15 K, 1980.9 kPa	681.933
298.15 K, 3167.8 kPa	682.97
298.15 K, 5067.6 kPa	684.841
298.15 K, 7065.3 kPa	686.383
298.15 K, 10107 kPa	689.119
298.15 K, 20128 kPa	696.696
298.15 K, 22004 kPa	699.062
298.15 K, 25080 kPa	701.29
298.15 K, 33113 kPa	707.026
298.15 K, 33924 kPa	706.971
298.15 K, 38097 kPa	709.948
298.15 K, 40161 kPa	711.975
298.15 K, 42028 kPa	713.324
298.15 K, 45021 kPa	715.087
298.15 K, 48107 kPa	717.001
298.15 K, 50068 kPa	718.317
298.15 K, 55016 kPa	721.123
298.15 K, 57931 kPa	723.027
298.15 K, 59914 kPa	724.031
298.15 K, 62036 kPa	725.393
298.15 K, 65018 kPa	726.954
298.16 K, 493.7 kPa	680.581
298.16 K, 1012.6 kPa	680.891
298.16 K, 9120.9 kPa	688.48
298.16 K, 11970 kPa	689.977
298.16 K, 15220 kPa	693.294
298.16 K, 17984 kPa	694.869
298.16 K, 28040 kPa	703.578
298.16 K, 30089 kPa	704.725
298.16 K, 32034 kPa	706.093
298.16 K, 33093 kPa	706.936
298.16 K, 35217 kPa	707.884
298.16 K, 52020 kPa	719.461
298.16 K, 66118 kPa	727.501
303.15 K, 100.7 kPa	675.559
303.15 K, 304.1 kPa	675.598
303.15 K, 498.9 kPa	675.77
303.15 K, 900.6 kPa	675.904
303.15 K, 979.1 kPa	676.053
303.15 K, 1977.6 kPa	677.27
303.15 K, 4930.4 kPa	680.06
303.15 K, 11975 kPa	686.61
303.15 K, 15044 kPa	689.15
